Laboratory results as given in patent US10472663B2, “Procedure for the rapid determination of bacterial susceptibility to antibiotics that inhibit protein synthesis” (ABM TECHNOLOGIES, LLC, priority 2015, dated 2019).

Key:
Format in all cases: cell-based
Escherichia coli [1] = test: Variant Micromax assay of cell enlargement by low-dose mitomycin C after tobramycin (Example 8)
Description: As an example, two strains of Escherichia coli exponentially growing in Mueller-Hinton broth were incubated under four different conditions and then assayed. One strain was susceptible and the other resistant to the aminoglycoside tobramycin (an inhibitor of protein synthesis). For the purpose of rapidly distinguishing susceptible and non-susceptible strains to tobramycin each strain was incubated under four conditions.
A portion of each strain was incubated with tobramycin at 4 μg/ml for 90 minutes. As described previously, this dose is indicated by the CLSI as the breakpoint of susceptibility to tobramycin in the standard antibiogram based on microdilution. Another portion of both strains was incubated in Mitomycin C at 0.5 μg/ml for 60 minutes. Still another portion of each strain was incubated with tobramycin at 4 μg/ml for 30 minutes followed by mitomycin C at 0.5 μg/ml for 60 minutes, without removing the tobramycin. A final portion of both strains was not incubated with either antibiotic.
After the incubation, cells were processed using a variant Micromax technology to visualize any enlargement or not of the bacteria. Samples from cells from the culture were immersed in an agarose microgel on a slide, dried, stained with a highly sensitive fluorochrome for DNA like SYBR Gold and visualized under fluorescence microscopy to visualize cell shape and size. Images were similar those correspondent to the previous figure.

Escherichia coli [2] = test: Micromax assay of mitomycin C-induced DNA fragmentation after tobramycin (Example 2); settings: for DNA fragmentation of nucleoids: tobramycin 4 μg/ml 30 min followed by mitomycin C 50 μg/ml 60 min
Description: FIGS. 7-9 depict a TG1 strain susceptible to the aminoglycoside tobramycin, an inhibitor of protein synthesis, and mitomycin C, an agent which induces DNA damage. The other strain illustrated in FIGS. 10-12 was a clinical isolate resistant to tobramycin.
One portion of both bacterial strains was incubated with tobramycin at 4 μg/ml for 90 min (FIGS. 7 and 10), a dosage indicated by the CLSI as the breakpoint of susceptibility to tobramycin in the standard antibiogram based on microdilution. Another portion of both strains was incubated with mitomycin C at 50 μg/ml for 60 min (FIGS. 8 and 11). Still another portion of both strains was incubated with tobramycin at 4 μg/ml for 30 min followed by mitomycin C at 50 μg/ml for 60 min, without removing the tobramycin (FIGS. 9 and 12). A final portion was left with no antibiotic.
After incubation, cells were processed using a variant of the Micromax technology to visualize nucleoids, i.e. bacterial chromosomal DNA, in all the cells of the population. Samples from cells from the culture are immersed in an agarose microgel on a slide and incubated with a specific lysing solution to remove the cell wall in all the cells and release in the microgel the nucleoids contained inside the bacteria. These are dried, stained with a highly sensitive fluorochrome for DNA like SYBR Gold and visualized under fluorescence microscopy, Nucleoids from E. coli obtained using the Micromax assay are represented in FIGS. 7-12, FIGS. 7-9 correspond to a strain susceptible to tobramycin (TG1) and FIGS. 10-12 to a strain resistant to tobramycin.

Pseudomonas aeruginosa [3] = test: Variant Micromax assay of cell wall damage by meropenem after tobramycin (Example 5); settings: for release of nucleoids (cell wall damage): tobramycin 4 μg/ml 15 min followed by meropenem 0.2 μg/ml 60 min
Excerpt: As an exemplification of this principal, FIGS. 19-24 illustrates assays of two strains of Pseudomonas aeruginosa exponentially growing in Mueller-Hinton broth. Both strains were both susceptible to the β-lactam meropenem, which inhibits peptidoglycan synthesis. One strain was susceptible (FIGS. 19-21) and the other resistant (FIGS. 22-24) to the aminoglycoside tobramycin (inhibitor of protein synthesis).
For the purpose of rapidly distinguishing susceptible and resistant (i.e. non-susceptible) strains to tobramycin each strain was subjected to four treatments. A portion of each strain was incubated with tobramycin at 4 μg/ml for 75 min (FIGS. 19 and 22). The dose utilized, was indicated by the CLSI as the breakpoint of susceptibility to tobramycin. FIGS. 20 and 23 illustrate an assay from another portion of each strain, which was incubated with Meropenem at 0.2 μg/ml for 60 min. FIGS. 21 and 24, illustrate assays from still another portion of both strains which was incubated with tobramycin at 4 μg/ml for 15 min followed by meropenem at 0.2 μg/ml for 60 min, without removing the tobramycin. Still another portion of both strains was maintained without the addition of either antibiotic.
(§1) After incubation cells were processed using a variant Micromax technology to visualize the affectation or not of the cell wall based on the release or not of the nucleoids contained inside the bacteria. In the same manner described previously, samples from cells from the culture are immersed in an agarose microgel on a slide and incubated with a specific lysing solution that removes the cell wall only in those bacteria whose peptidoglycan was affected, thus releasing in the microgel the nucleoids contained inside. […] The processed bacteria in microgel are dried, stained with a high sensitive fluorochrome for DNA like SYBR Gold and visualized under fluorescence microscopy.

Pseudomonas aeruginosa [4] = test: Variant Micromax assay of cell enlargement by ceftazidime after tobramycin (Example 7)
Description: As an example, two strains of Pseudomonas aeruginosa exponentially growing in Mueller-Hinton broth were assayed. These strains were both susceptible to the β-lactam ceftazidime, which inhibits peptidoglycan synthesis. One strain was susceptible and the other resistant to the aminoglycoside tobramycin (an inhibitor of protein synthesis). For the purpose of rapidly distinguishing the susceptible and the resistant strain to tobramycin each strain was subjected to four treatments.
A portion of each strain was incubated with tobramycin at 4 μg/ml (the CLSI breakpoint of susceptibility) for 75 minutes. An assay of this portion is depicted at FIGS. 31 and 34. Another portion of each strain was incubated with ceftazidime at 0.5 μg/ml for 60 minutes. An assay of this portion is depicted at FIGS. 32 and 35. Still another portion of both strains was incubated with tobramycin at 4 μg/ml for 15 minutes followed by ceftazidime at 0.5 μg/ml for 60 minutes, without removing the tobramycin. Assays of these strains can be seen at FIGS. 33 and 36, respectively. A final portion of each strain was not treated with either antibiotic.
After incubation with the antibiotics, cells were processed using a variant Micromax technology to visualize the enlargement or not of the bacteria. Samples from each culture were immersed in an agarose microgel on a slide, dried, stained with a high sensitive fluorochrome for DNA like SYBR Gold and visualized under fluorescence microscopy to visualize cell shape and size.

Klebsiella pneumoniae = test: Variant Micromax assay of cell wall damage by meropenem after tobramycin, twelve strains; settings: for cell wall lysis by meropenem: tobramycin 4 μg/ml 15 min followed by meropenem 1 μg/ml 60 min
Description: as §1
Further exemplifying the concept described above twelve strains of Klebsiella pneumoniae, 7 susceptible and 5 resistant to tobramycin, were processed using the same rationale and procedure. Specifically, one portion of each was incubated with tobramycin at 4 μg/ml for 75 min. Another portion was incubated with Meropenem at 1 μg/ml for 60 min. Still another portion was incubated with tobramycin at 4 μg/ml for 15 minutes followed by meropenem at 1 μg/ml for 60 min, without removing the tobramycin. A final portion remained without any antibiotics.

NC[C@H]1O[C@H](O[C@H]2[C@H](O)[C@@H](O[C@H]3O[C@H](CO)[C@@H](O)[C@H](N)[C@H]3O)[C@H](N)C[C@@H]2N)[C@H](N)C[C@@H]1O [tobramycin]
cell enlargement (Escherichia coli [1]; tobramycin 4 μg/ml 30 minutes followed by mitomycin C 0.5 μg/ml 60 minutes, tobramycin-resistant strain): appeared enlarged
bacterial shape and size (Escherichia coli [1]; tobramycin alone 4 μg/ml 90 minutes, both strains): does not affect bacterial shape and size
DNA fragmentation of nucleoids (Escherichia coli [2]; tobramycin-resistant clinical isolate): the DNA remained fragmented
DNA fragmentation of nucleoids (Escherichia coli [2]; tobramycin-susceptible TG1 strain): nucleoids without observable DNA fragmentation
modification of nucleoids (Escherichia coli [2]; tobramycin alone 4 μg/ml 90 min, both strains): does not result in modifications of the nucleoids
release of nucleoids (cell wall damage) (Pseudomonas aeruginosa [3]; tobramycin-resistant strain): the nucleoids were released
release of nucleoids (cell wall damage) (Pseudomonas aeruginosa [3]; tobramycin-susceptible strain): unchanged, non-lysed bacteria
cell wall lysis and bacterial shape (Pseudomonas aeruginosa [3]; tobramycin alone 4 μg/ml 75 min, both strains): does not result in cell wall lysis
cell enlargement (Pseudomonas aeruginosa [4]; tobramycin 4 μg/ml 15 minutes followed by ceftazidime 0.5 μg/ml 60 minutes, tobramycin-resistant strain): bacteria appeared enlarged
bacterial shape and size (Pseudomonas aeruginosa [4]; tobramycin alone 4 μg/ml 75 minutes, both strains): does not affect the bacterial shape and size
strains resistant to tobramycin (Klebsiella pneumoniae; of twelve strains): 5
strains susceptible to tobramycin (Klebsiella pneumoniae; of twelve strains): 7
cell wall lysis by meropenem (Klebsiella pneumoniae; tobramycin-resistant strains): the affectation of the cell wall by meropenem was not suppressed
cell wall lysis by meropenem (Klebsiella pneumoniae; tobramycin-susceptible strains): no appearance of cell wall lysis by meropenem
